{"source": "patent US9889182B2", "about": "“Assisted enzyme replacement therapy” (The Regents of the University of California, priority 2009, dated 2018)", "molecules": {"B1": {"name": "AP-α-1-iduronidase: α-1-iduronidase treated with alkaline phosphatase (protein, UniProt P35475 28-653, looked up)", "Alpha-L-iduronidase": "APHLVHVDAARALWPLRRFWRSTGFCPPLPHSQADQYVLSWDQQLNLAYVGAVPHRGIKQVRTHWLLELVTTRGSTGRGLSYNFTHLDGYLDLLRENQLLPGFELMGSASGHFTDFEDKQQVFEWKDLVSSLARRYIGRYGLAHVSKWNFETWNEPDHHDFDNVSMTMQGFLNYYDACSEGLRAASPALRLGGPGDSFHTPPRSPLSWGLLRHCHDGTNFFTGEAGVRLDYISLHRKGARSSISILEQEKVVAQQIRQLFPKFADTPIYNDEADPLVGWSLPQPWRADVTYAAMVVKVIAQHQNLLLANTTSAFPYALLSNDNAFLSYHPHPFAQRTLTARFQVNNTRPPHVQLLRKPVLTAMGLLALLDEEQLWAEVSQAGTVLDSNHTVGVLASAHRPQGPADAWRAAVLIYASDDTRAHPNRSVAVTLRLRGVPPGPGLVYVTRYLDNGLCSPDGEWRRLGRPVFPTAEQFRRMRAAEDPVAAAPRPLPAGGRLTLRPALRLPSLLLVHVCARPEKPPGQVTRLRALPLTQGQLVLVWSDEHVGSKCLWTYEIQFSQDGKAYTPVSRKPSTFNLFVFSPDTGAVSGSYRVRALDYWARPGPFSDPVPYLEVPVPRGPPSPGNP", "modifications": "dephosphorylated by alkaline phosphatase", "notes": "α-1-iduronidase treated with alkaline phosphatase"}, "B2": {"name": "GNeo-AP-α-1-iduronidase: GNeo conjugated to AP-α-1-iduronidase (conjugate, UniProt P35475 28-653, looked up)", "Alpha-L-iduronidase": "APHLVHVDAARALWPLRRFWRSTGFCPPLPHSQADQYVLSWDQQLNLAYVGAVPHRGIKQVRTHWLLELVTTRGSTGRGLSYNFTHLDGYLDLLRENQLLPGFELMGSASGHFTDFEDKQQVFEWKDLVSSLARRYIGRYGLAHVSKWNFETWNEPDHHDFDNVSMTMQGFLNYYDACSEGLRAASPALRLGGPGDSFHTPPRSPLSWGLLRHCHDGTNFFTGEAGVRLDYISLHRKGARSSISILEQEKVVAQQIRQLFPKFADTPIYNDEADPLVGWSLPQPWRADVTYAAMVVKVIAQHQNLLLANTTSAFPYALLSNDNAFLSYHPHPFAQRTLTARFQVNNTRPPHVQLLRKPVLTAMGLLALLDEEQLWAEVSQAGTVLDSNHTVGVLASAHRPQGPADAWRAAVLIYASDDTRAHPNRSVAVTLRLRGVPPGPGLVYVTRYLDNGLCSPDGEWRRLGRPVFPTAEQFRRMRAAEDPVAAAPRPLPAGGRLTLRPALRLPSLLLVHVCARPEKPPGQVTRLRALPLTQGQLVLVWSDEHVGSKCLWTYEIQFSQDGKAYTPVSRKPSTFNLFVFSPDTGAVSGSYRVRALDYWARPGPFSDPVPYLEVPVPRGPPSPGNP", "modifications": "GNeo conjugate, dephosphorylated", "notes": "GNeo conjugated to AP-α-1-iduronidase"}}, "key": {"10T1/2 cells": {"test_system": "10T1/2 cells", "assay": "FACS cellular uptake of BODIPY conjugates in 10T1/2 cells", "type": "cell-based, mouse", "procedure": "10T1/2 cells, an adherent non-transformed mouse fibroblast cell line, and HeLa cells, a common human cancer cell line, were purchased from ATCC and used before their 20th passage. Both cell lines were cultured in Dulbecco's modified eagle medium containing 10% fetal bovine serum at 37° C. in an 8% CO2 environment. For each experiment, cells were seeded onto 4 cm tissue culture plates (Nunc) and allowed to grow overnight to ˜80% confluency.\nCompounds 1-5 identified in Table 1, below (0.5-1 μM), were added to each dish and incubated at 37° C./8% CO2 for 0.5-1 hr. Cells were then washed once in PBS, trypsinized with 500 μl ATV solution (Gibco) for 3 minutes, pelleted in a fixed angle centrifuge for 5 minutes at 5,000×G, then brought up in 1 mL PBS. Each sample was quickly (within 5 minutes) analyzed on a FACS VantageSE cell sorter (Becton-Dickinson) using the 488 nm argon/krypton laser line and a 530 nm band pass emission filter. 2,000-10,000 cells were counted per sample."}, "[1]": {"test_system": "FGF-2 binding to cell surface heparan sulfate", "assay": "Inhibition of biotinylated FGF-2 binding to wild-type CHO cells", "design": "species or system Chinese hamster", "procedure": "(§1) Inhibition Experiments—Wild-type CHO cells were grown to confluence on 6-well tissue culture plates, harvested with 10 mM EDTA (37° C., 10 min), washed with phosphate-buffered saline (PBS), and incubated in suspension with biotinylated FGF-2 (10 ng/ml) (25) in F12 medium for 1 h at 4° C. in the presence of increasing concentrations of guanidinoneomycin (100 nM to 1.8 mM). The cells were then stained with streptavidin-phycoerythrin-Cy5 (BD Biosciences) for 20 min, washed three times with PBS, and analyzed by flow cytometry. Cells were also incubated in F12 medium containing 0.5 μM Arg9-BODIPY and increasing concentrations of guanidinoneomycin (1-300 μM) for 1 h at 37° C. and analyzed by flow cytometry."}, "Wild-type CHO cells [2]": {"test_system": "Wild-type CHO cells", "assay": "Inhibition of Arg9-BODIPY binding and uptake", "type": "cell-based, Chinese hamster", "conditions": "Arg9-BODIPY 0.5 μM, guanidinoneomycin 1-300 μM, 1 h, 37° C.", "procedure": "as §1"}, "Wild-type CHO cells [3]": {"test_system": "Wild-type CHO cells", "assay": "Uptake of streptavidin-PE-Cy5 conjugates by flow cytometry, wild-type CHO cells", "type": "cell-based, Chinese hamster", "method": "After thawing at room temperature, compounds were diluted into F12 medium to 1 μM. To this solution, streptavidin-PE-Cy5 (BD Biosciences) was added in a 1:1000 dilution to achieve a ratio of 1:3 of fluorophore to biotin. To ensure completion of the biotin-streptavidin reaction, the solution was gently mixed and allowed to incubate at room temperature, shielded from light for 30 min. Following this incubation, compounds were diluted to the desired concentration in growth medium. For experiments done at 4° C. solutions were incubated on ice for 30 min.\nAfter washing with PBS, cells were incubated with the fluorescent-tagged guanidinoneomycin-, neomycin-, or Arg9-biotin for 1 h at 37° C. under an atmosphere of 5% CO2. Cells were washed with PBS, released with EDTA, and analyzed by flow cytometry."}, "WT CHO-K1 cells": {"test_system": "WT CHO-K1 cells", "assay": "Competition of guanidinoneomycin construct uptake by model glycans", "type": "cell-based, Chinese hamster"}, "Wild-type CHO cells [4]": {"test_system": "Wild-type CHO cells", "assay": "Live-cell uptake of fluorescent guanidinoneomycin conjugate (streptavidin-Alexa-488), microscopy", "type": "cell-based, Chinese hamster", "conditions": "heparin 50 μg/ml", "procedure": "Microscopy—Cells were cultured on Lab-Tek chambered coverglass slides (Electron Microscopy Sciences) in F12 medium. After washing with PBS, cells were incubated for 1 h in 1 ml of 60 nM guanidinoneomycin coupled to streptavidin-Alexa-488 (Molecular Probes) at 37° C. Guanidinoneomycin-A488 was prepared by incubating 1 μM guanidinoneomycinbiotin with 6 μg of streptavidin-Alexa-488 in 1 ml of medium. Hoechst 33342 (2 μg/ml; Molecular Probes) was added to cells for the last 20 min of incubation. Cells were washed three times with F12 medium before live cell imaging. Microscopic images were acquired on an Olympus IX70 DeltaVision Spectris Image Deconvolution system, equipped with a temperature and atmospherically controlled stage. Images were deconvolved (10 cycles) using SoftWoRx Explorer Suite software."}, "Wild-type CHO cells [5]": {"test_system": "Wild-type CHO cells", "assay": "Saporin delivery, CellTiter-Blue viability, wild-type CHO cells", "conditions": "at concentrations up to 100 nM", "procedure": "Saporin Delivery—A conjugate of saporin and biotinylated guanidinoneomycin was prepared by mixing streptavidinylated saporin (Advanced Targeting Systems) with biotinylated compound in 1:4 ratio. […] CellTiter-Blue (Promega) was added to the medium and cells were incubated for an additional 4 h to measure viability."}, "MPS I fibroblasts": {"test_system": "MPS I fibroblasts", "assay": "[35S]glycosaminoglycan turnover, label-chase, MPS I fibroblasts", "type": "cell-based, human", "conditions": "enzyme 2 hours, chase 24 hours", "procedure": "To test whether internalized GUS was functionally localized in lysosomes, a label-chase format was used in which cells were incubated with ^35S-labeled sulfate for 24 hours to radiolabel the sulfated glycosaminoglycans. The medium was changed, and after 24 hours, the amount of [^35S]glycosaminoglycans that remained associated with the cells was quantitated. Normal and MPS fibroblasts were incubated in DMEM/F12 medium supplemented with 10% dialyzed fetal bovine serum in order to increase the radiospecific activity of added ^35S4. Cells were seeded in a 12-well plate, and at confluence, 50 μCi of Na[^35S]O4 (PerkinElmer) was added in 1 ml of fresh medium. After 24 hours, the cells were rinsed twice with PBS, exposed to GUS or α-iduronidase for 2 hours, rinsed twice, and then chased for 24 hours in complete growth medium. The cells were harvested with trypsin, centrifuged (500 g, 5 minutes), and washed once. The sedimented cells were then resuspended in 100 μl of RIPA buffer (Sigma) and counted by liquid scintillation spectrometry using Scintillator Ultima Gold XR (PerkinElmer)."}}, "note": "Entries after “also recorded” stand apart in the source; their conditions may differ."}
{"molecule": "N=C(N)NC[C@@H]1O[C@H](O[C@H]2[C@@H](O)[C@H](O[C@@H]3[C@@H](O)[C@H](NC(=N)N)C[C@H](NC(=N)N)[C@H]3O[C@H]3O[C@H](CNC(=N)N)[C@@H](O)[C@H](O)[C@H]3NC(=N)N)O[C@@H]2CO)[C@H](NC(=N)N)[C@@H](O)[C@@H]1O", "note": "[guanidinoneomycin, guanidino-neomycin B]", "values": [{"measurement": "inhibition of transport of BODIPY-Cys(Arg)9 into cells", "setting": "10T1/2 cells; competition experiment, FACS", "value": "effectively inhibits"}, {"measurement": "IC50", "setting": "[1]; biotinylated FGF-2 10 ng/ml, 1 h, 4° C.", "value": "~20", "unit": "µM"}, {"measurement": "inhibition of fluorescent Arg9 binding and uptake", "setting": "Wild-type CHO cells [2]", "value": "incomplete; also recorded: partially block"}]}
{"molecule": "NC[C@@H]1O[C@H](O[C@H]2[C@@H](O)[C@H](O[C@@H]3[C@@H](O)[C@H](N)C[C@H](N)[C@H]3O[C@H]3O[C@H](CN)[C@@H](O)[C@H](O)[C@H]3N)O[C@@H]2CO)[C@H](N)[C@@H](O)[C@@H]1O", "note": "[neomycin, neomycin B, reference compound]", "values": [{"measurement": "enhancement of cellular uptake upon guanidinylation", "setting": "10T1/2 cells; relative to autofluorescence, BODIPY conjugates, FIG. 3 and Table 1", "value": "approximately 20 fold"}, {"measurement": "inhibition of FGF-2 binding", "setting": "[1]", "value": "did not inhibit binding"}]}
{"molecule": "heparin [Heparin (A)]", "values": [{"measurement": "heparin concentration blocking uptake of fluorescent guanidinoneomycin conjugate (as low as)", "setting": "Wild-type CHO cells [3]", "value": "≥ 100", "unit": "ng/mL"}, {"measurement": "increase of sensitivity of dimeric over monomeric construct to inhibition", "setting": "WT CHO-K1 cells", "value": 3, "unit": "fold"}, {"measurement": "inhibition of uptake of monomeric guanidinoneomycin 1", "setting": "WT CHO-K1 cells; at the tested concentrations", "value": "showed inhibition"}, {"measurement": "effect of heparin in incubation medium on uptake of guanidinoneomycin-streptavidin-Alexa-488", "setting": "Wild-type CHO cells [4]", "value": "completely abolished uptake"}]}
{"molecule": "saporin", "values": [{"measurement": "cell toxicity", "setting": "Wild-type CHO cells [5]", "value": "No cell toxicity"}]}
{"molecule": "B1", "values": [{"measurement": "ED50, [35S]glycosaminoglycan turnover", "setting": "MPS I fibroblasts", "value": 30, "unit": "U"}]}
{"molecule": "B2", "values": [{"measurement": "ED50, [35S]glycosaminoglycan turnover", "setting": "MPS I fibroblasts", "value": 0.2, "unit": "units"}]}
